What all share (assay): Determination of Minimum Inhibitory Concentrations (MIC), agar dilution
Common to all, as to type: cell-based

One assay deals with K. aerogenes 1522E. The conditions noted are these: Klebsiella aerogenes. On the procedure:
(§1) Serial two-fold dilutions of freshly prepared test solutions were made into Oxoid No. 1 Nutrient agar with or without added enrichment and poured into petri dishes. Plates were inoculated with a multipoint inoculator with inoculum containing approximately 10^5 colony forming units of the organisms shown in the following Table, all of which organisms are clinical isolates. The MIC, quoted in the Table as µg/ml, was read after 18 hours incubation at 37°C as the lowest concentration which inhibited growth.

Another assay deals with S. marcescens 1324E. The conditions noted are these: Serratia marcescens. The protocol: as §1
Another assay deals with E. cloacae 1051E. The conditions noted are these: Enterobacter cloacae. The protocol: as §1
For another assay, the system named is E. cloacae 1321E. The conditions noted are these: Enterobacter cloacae. The protocol:
as §1

A further assay concerns Staph. aureus 853E. To be noted: Staphylococcus aureus. The protocol: as §1
A further assay has as its system Micrococcus Sp 1810E. The conditions noted are these: SP1810E. On the procedure:
as §1

The next assay has as its system E. coli 851E. The conditions noted are these: Escherichia coli. The protocol:
as §1

For a further assay, the system named is H. influenzae 1184E. The conditions noted are these: Haemophilus influenzae. On the procedure:
as §1

[1] abbreviates: K. aerogenes 1522E, clinical isolate, Oxoid No. 1 Nutrient agar, approx. 10^5 colony forming units, 18 hours at 37°C, read-out: MIC.
[2] abbreviates: S. marcescens 1324E, clinical isolate, Oxoid No. 1 Nutrient agar, approx. 10^5 colony forming units, 18 hours at 37°C, read-out: MIC.
[3] abbreviates: E. cloacae 1051E, clinical isolate, Oxoid No. 1 Nutrient agar, approx. 10^5 colony forming units, 18 hours at 37°C, read-out: MIC.
The mark [4] stands for this setting: E. cloacae 1321E, clinical isolate, Oxoid No. 1 Nutrient agar, approx. 10^5 colony forming units, 18 hours at 37°C, read-out: MIC.
[5] abbreviates: Staph. aureus 853E, clinical isolate, Oxoid No. 1 Nutrient agar, approx. 10^5 colony forming units, 18 hours at 37°C, read-out: MIC.
[6] abbreviates: Micrococcus Sp 1810E, clinical isolate, Oxoid No. 1 Nutrient agar, approx. 10^5 colony forming units, 18 hours at 37°C, read-out: MIC.
[7] abbreviates: E. coli 851E, clinical isolate, Oxoid No. 1 Nutrient agar, approx. 10^5 colony forming units, 18 hours at 37°C, read-out: MIC.
The mark [8] stands for this setting: H. influenzae 1184E, clinical isolate, Oxoid No. 1 Nutrient agar, approx. 10^5 colony forming units, 18 hours at 37°C, read-out: MIC.

Here are results for four compounds from patent publication EP0010358A1, “Beta-lactam compounds, processes for their preparation, compositions containing them, intermediates of use in their preparation and methods for the production thereof” (GLAXO GROUP LIMITED, priority 1978, dated 1980).

Each structure is given as a SMILES string. Converted amounts (≈) assume the structure as drawn. Like-named read-outs stand apart in the source and are kept apart here.

`CNC(=O)NCCC1=C(C(=O)O)N2C(=O)CC2S1` (racemic) [Example 10, Potassium (5RS)-2-(2-N-methylureidoethyl)pen-2-em-3-carboxylate]: the MIC in the assay with K. aerogenes 1522E (setting [1]) stood at 8 µg/mL; in the assay with S. marcescens 1324E (setting [2]), 8 µg/mL; in the assay with E. cloacae 1051E (setting [3]), 16 µg/mL; in the assay on E. cloacae 1321E (setting [4]), 8 µg/mL; in the assay with Staph. aureus 853E (setting [5]) it was 62 µg/mL; with Micrococcus Sp 1810E (setting [6]), 1 µg/mL. For the same compound, the MIC in the assay on E. coli 851E (setting [7]) and in the assay on H. influenzae 1184E (setting [8]) was 8 µg/mL each time.

With `O=C(NCCC1=C(C(=O)O)N2C(=O)CC2S1)Nc1ccccc1` (racemic) [Example 11, Potassium (5RS)-2-(2-N-phenylureidoethyl)pen-2-em-3-carboxylate], the MIC in the assay with K. aerogenes 1522E (setting [1]) stood at 2 µg/mL; with S. marcescens 1324E (setting [2]), 8 µg/mL; in the assay on E. cloacae 1051E (setting [3]) it was 16 µg/mL; in the assay on E. cloacae 1321E (setting [4]), 8 µg/mL; in the assay with Staph. aureus 853E (setting [5]), 0.2 µg/mL; with Micrococcus Sp 1810E (setting [6]) it was 0.2 µg/mL. For the same compound, the MIC in the assay on E. coli 851E (setting [7]) was determined as 2 µg/mL; with H. influenzae 1184E (setting [8]) it was 16 µg/mL.

Take `O=CNCCC1=C(C(=O)O)N2C(=O)CC2S1` (racemic) [Example 4, (5RS)-2-(2-Formamidoethyl)pen-2-em-3-carboxylic acid]: the MIC is 2 µg/mL (≈ 8.26 µM) with K. aerogenes 1522E (setting [1]); 2 µg/mL (≈ 8.26 µM) with S. marcescens 1324E (setting [2]); 1 µg/mL (≈ 4.13 µM) with E. cloacae 1051E (setting [3]); 1 µg/mL (≈ 4.13 µM) in the assay on E. cloacae 1321E (setting [4]); 2 µg/mL (≈ 8.26 µM) in the assay with Staph. aureus 853E (setting [5]); 0.1 µg/mL (≈ 0.413 µM) in the assay on Micrococcus Sp 1810E (setting [6]). For the same compound, the MIC in the assay with E. coli 851E (setting [7]) came out at 1 µg/mL (≈ 4.13 µM); with H. influenzae 1184E (setting [8]), 2 µg/mL (≈ 8.26 µM).

Regarding `CC(=O)NCCC1=C(C(=O)[O-])N2C(=O)CC2S1.[K+]` (racemic) [Example 7, Potassium (5RS)-2-(2-acetamidoethyl)pen-2-em-3-carboxylate], the MIC with K. aerogenes 1522E (1522E, 18 h) was 8 µg/mL; against S. marcescens 1324E (1324E, 18 h) it was 31 µg/mL; in the assay with E. cloacae 1051E (1051E, 18 h) it was 16 µg/mL; with E. cloacae 1321E (1321E, 18 h) it was 4 µg/mL; in the assay with Staph. aureus 853E (853E, 18 h) it was 2 µg/mL; against Micrococcus Sp 1810E (Micrococcus, 18 h), 2 µg/mL. Besides, the MIC with E. coli 851E (851E, 18 h) is 8 µg/mL; in the assay with H. influenzae 1184E (1184E, 18 h), 16 µg/mL.
